Laboratory results taken from patent US20060079453A1, “Hla binding peptides and their uses” (priority 2002, published 2006).
Like-named read-outs stand apart in the source and are kept apart here. No end group written: not given here.

How the values were obtained:
Experiment in all cases: biochemical
Assay type in all cases: binding
HLA-DR DRB1*0401 (DR4) = HLA-DR DRB1*0401 (DR4) (Homo sapiens, UniProt P01903+P01911, A100K/A169T/F76Y/I96L/K127E/L162R/M171V/N62H/P40V/Q125Y/R42H/S133A/S149N/S66Y/V115G/V209L/W38E)
HLA-DR DRB1*0701 (DR7) = HLA-DR DRB1*0701 (DR7) (Homo sapiens, UniProt P01903+P01911, A100R/A102G/A103Q/D57E/D86V/E43K/F76Y/K127E/L162R/M171V/P40G/Q125H/Q99D/R33Q/R42Y/R54Q/S133A/S66F/T210M/V115G/Y107V/Y59L/Y89S)
HLA-DR DRB1*0901 (DR9) = HLA-DR DRB1*0901 (DR9) (Homo sapiens, UniProt P01903+P01911, A100R/A103E/D57H/D86V/F55Y/F60I/F76Y/I96F/K127E/L162R/M171V/P40D/Q125H/Q99R/R33Q/R42F/S133A/S66N/T210M/V115G/W38K/Y107V/Y59G/Y89S)
HLA-DR DRB1*0802 (DR8) = HLA-DR DRB1*0802 (DR8) (Homo sapiens, UniProt P01903+P01911, A100R/A103L/A169T/F76Y/H45Y/I96F/K41T/L162R/M171V/P40S/Q125H/Q178H/Q39Y/Q99D/R218S/R42G/S66Y/V115G/W38E)
HLA-DR DRB1*0301 (DR3) = HLA-DR DRB1*0301 (DR3) (Homo sapiens, UniProt P01903+P01911, A100K/A102G/A103R/A169T/F55Y/I96L/K41T/L162R/M171V/P40S/Q125H/Q178H/Q39Y/R42S/S66N/T106N/T262R/W38E/Y61H)
HLA-DR DRB1*0301 (DR3), sequence (P01903 26-254 limits assumed, other chains not shown): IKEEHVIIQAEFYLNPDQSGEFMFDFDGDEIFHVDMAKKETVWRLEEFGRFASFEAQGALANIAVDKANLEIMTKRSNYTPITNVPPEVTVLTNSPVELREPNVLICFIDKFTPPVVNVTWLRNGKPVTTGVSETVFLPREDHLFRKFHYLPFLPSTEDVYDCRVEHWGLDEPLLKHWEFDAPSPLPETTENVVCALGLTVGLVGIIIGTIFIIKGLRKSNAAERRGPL

HLA-DR DRB1*0101 (DR1) = HLA-DR DRB1*0101 (DR1) (Homo sapiens, UniProt P01903+P01911, A100R/D57E/F55L/F60I/F76Y/I96L/L162R/M171V/P40L/Q125E/R42F/V115G/Y59C)
HLA-DR DRB5*0101 (DR51) = HLA-DR DRB5*0101 (DR51) (Homo sapiens, UniProt P01903+Q30154); settings: DRB5 *0101
HLA-DR DRB1*1501 (DR15) = HLA-DR DRB1*1501 (DR15) (Homo sapiens, UniProt P01903+P01911); settings: DRBI *1501
HLA-DR DRB4*0101 (DR53) = HLA-DR DRB4*0101 (DR53) (Homo sapiens, UniProt P01903+P13762, G164S); settings: DRB4 *0101
HLA-DR DRB1*1101 (DR11) = HLA-DR DRB1*1101 (DR11) (Homo sapiens, UniProt P01903+P01911, A100R/A169T/A87E/I96F/K41T/L162R/M171V/P40S/Q125H/Q178H/Q39Y/Q99D/R42S/S66Y/T262R/V115G/W38E); settings: DRB1 *1101
HLA-DR DRB1*1101 (DR11), sequence (P01903 26-254 limits assumed, other chains not shown): as above

HLA-DR DRB1*1302 (DR13) = HLA-DR DRB1*1302 (DR13) (Homo sapiens, UniProt P01903+P01911, A100E/A169T/K41T/L162R/M171V/P40S/Q125H/Q178H/Q39Y/Q99D/R42S/S66N/T262R/V115G/W38E/Y61H); settings: DRBI *1302
HLA-DR DRB1*1302 (DR13), sequence (P01903 26-254 limits assumed, other chains not shown): as above

Row | Compound | IC50 (HLA-DR DRB1*0401 (DR4); DRB1 *0401) | IC50 (HLA-DR DRB1*0701 (DR7); DRB1 *0701) | IC50 (HLA-DR DRB1*0901 (DR9); DRB1 *0901) | IC50 (HLA-DR DRB1*0802 (DR8)) | IC50 (HLA-DR DRB1*0301 (DR3)) | IC50 (HLA-DR DRB1*0701 (DR7); read-out: DRB1 *0701) | IC50 (HLA-DR DRB1*0901 (DR9); read-out: DRB1 *0901) | IC50 (HLA-DR DRB1*0802 (DR8); read-out: DRB1 *0802) | IC50 (HLA-DR DRB1*0101 (DR1); read-out: DRB1 *0101) | IC50 (HLA-DR DRB1*0301 (DR3); read-out: DRB1 *0301) | IC50 (HLA-DR DRB5*0101 (DR51)) | IC50 (HLA-DR DRB1*1501 (DR15)) | IC50 (HLA-DR DRB4*0101 (DR53)) | IC50 (HLA-DR DRB1*0101 (DR1); DRB1 *0101) | IC50 (HLA-DR DRB1*1101 (DR11)) | IC50 (HLA-DR DRB1*1302 (DR13)) | IC50 (HLA-DR DRB1*0401 (DR4); read-out: DRB1 *0401)
1 | CC[C@H](C)[C@H](N)C(=O)N[C@@H](CO)C(=O)N[C@H](C(=O)N[C@H](C(=O)N[C@@H](CC(N)=O)C(=O)N[C@@H](CCC(=O)O)C(=O)N[C@@H](CC(=O)O)C(=O)NCC(=O)N[C@@H](CC(N)=O)C(=O)N[C@@H](CCC(=O)O)C(=O)N[C@H](C(=O)N[C@@H](Cc1ccccc1)C(=O)N[C@@H](CC(N)=O)C(=O)N[C@H](C(=O)N[C@@H](CO)C(=O)O)[C@@H](C)O)[C@@H](C)CC)[C@@H](C)CC)[C@@H](C)CC | > 13000 nM | > 23100 nM | > 52300 nM | > 123000 nM | 559 nM | – | – | – | – | – | – | – | – | – | – | – | –
2 | RGGMVFELANSIYLP | – | – | – | – | – | 41 nM | 33 nM | 8680 nM | 10 nM | 37100 nM | – | – | – | – | – | – | –
3 | CC[C@H](C)[C@H](NC(=O)[C@H](CS)NC(=O)[C@H](Cc1c[nH]cn1)NC(=O)[C@H](C)NC(=O)[C@H](C)NC(=O)[C@@H](NC(=O)[C@H](CC(C)C)NC(=O)[C@@H](NC(=O)[C@H](Cc1c[nH]c2ccccc12)NC(=O)[C@H](CCC(N)=O)NC(=O)[C@@H]1CCCN1C(=O)[C@@H](N)Cc1c[nH]cn1)C(C)C)[C@@H](C)O)C(=O)N[C@@H](CCCNC(=N)N)C(=O)N[C@@H](CC(N)=O)C(=O)N[C@@H](CCCCN)C(=O)O | 1620 nM | 283 nM | 107 nM | 1300 nM | 3630 nM | – | – | – | – | – | 40 nM | 6500 nM | 5520 nM | 13 nM | – | – | –
4 | RQEILDLWVYHTQGF | 5930 nM | 3050 nM | 3680 nM | 2730 nM | 10500 nM | – | – | – | – | – | > 20500 nM | 985 nM | – | – | 11100 nM | – | –
5 | PRSLQCVSLHLLSND | 16000 nM | 2220 nM | 28300 nM | 6110 nM | – | – | – | – | – | – | 46400 nM | 1600 nM | 544 nM | 1110 nM | 11100 nM | 3730 nM | –
6 | DKAVSGLRSLTTLLR | 1010 nM | – | > 78900 nM | 16400 nM | 4330 nM | – | – | – | – | – | 104 nM | 60 nM | 2010 nM | 13 nM | 52 nM | 187 nM | –
7 | CC(C)C[C@H](NC(=O)[C@@H]1CCCN1C(=O)[C@H](Cc1c[nH]cn1)NC(=O)[C@@H]1CCCN1C(=O)[C@H](Cc1ccccc1)NC(=O)[C@H](CO)NC(=O)[C@H](Cc1c[nH]cn1)NC(=O)[C@H](CO)NC(=O)[C@@H](NC(=O)[C@H](CCC(N)=O)NC(=O)[C@H](Cc1ccccc1)NC(=O)[C@@H](NC(=O)[C@H](CCC(N)=O)NC(=O)CN)C(C)C)C(C)C)C(=O)N[C@@H](Cc1ccc(O)cc1)C(=O)O | 8.2 nM | 27 nM | 33 nM | 548 nM | 45000 nM | – | – | – | – | – | 128 nM | 2170 nM | – | – | – | 146 nM | –
8 | VEALYLVCGERGFLY | – | 5350 nM | 3060 nM | 10600 nM | – | – | – | – | – | – | 5150 nM | – | 19 nM | 14 nM | 55400 nM | 1870 nM | –
9 | LAHYDVLLSYPNK | – | – | – | – | – | 3620 nM | 1010 nM | 415 nM | 79 nM | 37500 nM | – | – | – | – | – | – | –
10 | SHDLMLLRLSEPAEL | – | – | – | – | – | 58 nM | 64 nM | 3540 nM | 532 nM | 6220 nM | – | – | – | – | – | – | 4050 nM
